Laboratory results published in publication PMC8560896 (Frontiers in Chemistry, 2021).
“Also recorded” adds a separate entry of the source.

Legend:
SH-SY5Y cells [1] = assay: ROS measurement (H2DCF-DA, flow cytometry) after H2O2 insult; assay type: cell-based, human; settings: for ROS measurement 250 nM / ROS measurement 500 nM / ROS measurement 1 μM / ROS measurement 10 μM: fluorescence relative to control = 1, H2O2 (100 μM) alone 6.31, 24 h + 3 h; for ROS measurement 250 nM: hybrid 250 nM; for ROS measurement 500 nM: hybrid 500 nM; for ROS measurement 1 μM: hybrid 1 μM; for ROS measurement 10 μM: hybrid 10 μM
Protocol: H2DCF-DA is a molecule that easily diffuses into cells and, through intracellular esterases, is split into H2DCF following the loss of the acetate group. H2DCF remains trapped within cells and is oxidized by intracellular ROS to form the highly fluorescent DCF compound. Spectrofluorimetric quantification of the DCF probe, provides the content of the ROS in the cell.
[…]. Subsequently, the growth medium was replaced with a fresh phenol red-free medium containing H2DCF-DA (25 μM). After 30 min at 37°C, the cells were washed twice to remove the extracellular H2DCF-DA, centrifuged, re-suspended in PBS, exposed to H2O2 (100 μM, 30 min) and the fluorescence was evaluated by flow cytometric analysis using a FACS Accury laser flow cytometer (Becton Dickinson). The results were expressed by setting the control equal to 1 and reporting all other values. H2O2 alone was used as a positive control.

SH-SY5Y cells [2] = assay: MTT cell viability assay; assay type: cell-based, human; settings: for Effect on cell viability: 0.25–100 μM, 24 h; for IC50: Homo sapiens, neurotoxic concentration, SH-SY5Y
Description: The MTT test is based on the observation that live cells can reduce the water-soluble yellow tetrazolium salt [3-(4,5-dimethylthiazol-2-yl)-2,5-diphenyltetrazolium bromide] into water-insoluble blue/magenta formazan crystals, by dehydrogenase of the active mitochondria. Dissolved formazan crystals can be quantified using a spectrophotometer and the values obtained are in direct correlation to the number of metabolically active cells. For this reason, this colorimetric assay is used to evaluate cell viability.
The MTT assay was performed as reported in literature ([Corasaniti et al., 2007]). […].
The optical density was measured at wavelengths of 540 and 690 nm using a spectrophotometer (X MARK Spectrophotometer Microplate Bio-Rad).

SH-SY5Y cells [3] = assay: MTT cell viability after H2O2 damage (neuroprotection); assay type: cell-based, human; settings: hybrids 21 h, then H2O2 100 μM 3 h; vs hydrogen peroxide alone
[4] = Oxygen radical absorbance capacity (ORAC) by fluorescence; settings: for ORAC: means ± SEM of three independent observations, sample 10 μM in 7% RMCD solution
Protocol: The measurement temperature was set at 37°C. A regression equation was built by comparing the net area under the FL decay curve and the Trolox concentration according to the following equation: Y(µM Trolox)=a+bX(AUC−n) and the final ORACFL values were expressed as Trolox equivalents (μmol g^−1).

[5] = Cupric ion reducing antioxidant capacity (CUPRAC); settings: for TEAC: Supplementary Table 1, ε of compound divided by ε of Trolox; for CUPRAC: Trolox equivalent, 2% M-β-CD, A450 after 40 min
Protocol: The CUPRAC test was performed as reported by [Ozyürek et al. (2008)] on the new compounds in the unacetylated form.
CuCl2 solution 10 mM, was prepared by dissolving […] CuCl2 in water, and diluting to 250 ml. Neocuproine (Nc) solution 7.5 mM, was prepared by dissolving 15 mg of neocuproine in 10 ml of absolute EtOH. Ammonium acetate 1.0 M was prepared by dissolving 19.27 g of NH4Ac in 250 ml of water. The cyclodextrin (2% M-β-CD) stock solution was prepared in water-acetone (9:1 v/v). The standard solution of Trolox 1 mM was prepared in 2% M-β-CD. All working solutions of antioxidant 1 mM were freshly prepared in 2% M-β-CD.
1 ml of Cu(II) + 1 ml of Nc + 1 ml of NH4Ac buffer + x mL of antioxidant solution + (1.1 − x) 2% M-β-CD in 1:9 water–acetone mixture (v/v); total volume = 4.1 ml, measure A 450 against a reagent blank after 40 min of reagent addition at room temperature.
The Trolox equivalent antioxidant capacity (TEAC) is defined as the millimolar concentration of a Trolox solution having the antioxidant capacity equivalent to a 1.0 mM solution of the substance under investigation. The […] values were simply calculated by dividing the molar absorptivity ε of the species under investigation by that of Trolox under corresponding conditions. The concentration linearity ranges for all the antioxidants tested are reported in the Supplementary Material (See Supplementary Table S1).

[6] = Metal-chelating properties by UV-vis spectroscopy; settings: compound 75 μM with CuSO4, FeSO4, FeCl3 or ZnCl2 150 μM in MeOH, 30 min
Protocol: The complexing studies for all the unprotected hybrids were carried out through a UV–vis spectroscopy assay with the wavelength ranging from 200 to 400 nm. The unprotected hybrids were dissolved in a 5% DMSO methanolic solution (3 mM). This solution was diluted with methanol to 150 µM. 2 ml of the 150 µM solution were mixed with 2 ml of methanol to record the spectra of the hybrids alone, or with 2 ml of the salts solution (300 µM). Then, the absorption spectra of the antioxidants (75 μM) alone or in the presence of CuSO4, FeSO4, FeCl3 or ZnCl2 (150 μM) mixed for 30 min in methanol at room temperature were recorded in a 1 cm quartz cell.

For `COc1cc(CCOC(=O)C2CCN(Cc3ccccc3)CC2)ccc1OC(C)=O` [HT3a], the “ROS measurement 250 nM” value (SH-SY5Y cells [1]) was 2.27, the “ROS measurement 500 nM” value (SH-SY5Y cells [1]) was 1.94 and the “ROS measurement 1 μM” value (SH-SY5Y cells [1]) was 1.58. The “ROS measurement 10 μM” value (SH-SY5Y cells [1]) was 2.13, the “Effect on cell viability” value (SH-SY5Y cells [2]) was “reduction in cell viability was found for compounds HT3a and HT4a at concentrations higher than 10 μM” and the IC50 (SH-SY5Y cells [2]) was greater than 10 µM. The “Protective effect on cell viability against H2O2 damage” value (shortened to “Protective effect on cell viability”) (SH-SY5Y cells [3]) was “statistically significant increase in cell viability; also recorded: able to attenuate cell injury against oxidative stress”.
For `OCCc1ccc(O)c(O)c1` [HT, hydroxytyrosol, reference compound], the ORAC [4] was 38.8 ± 4.4 µmol trolox l^−1, the TEAC [5] was 2,82 and the CUPRAC [5] was 2.82 (mmol of trolox)/(mmol of tested compound).
In the case of `CC(=O)Oc1ccc(CCOC(=O)C2CCN(Cc3ccccc3)CC2)cc1OC(C)=O` [HT1a], the “ROS measurement 250 nM” value (SH-SY5Y cells [1]) is reported as 2.99, the “ROS measurement 500 nM” value (SH-SY5Y cells [1]) is reported as 2.63 and the “ROS measurement 1 μM” value (SH-SY5Y cells [1]) is reported as 2.51. The “ROS measurement 10 μM” value (SH-SY5Y cells [1]) was 2.66 and the IC50 (SH-SY5Y cells [2]) was greater than 50 µM.
With `Cc1c(C)c2c(c(C)c1O)CCC(C)(C(=O)O)O2` (stereo not shown) [Trolox, reference compound] the TEAC [5] was 1 and the CUPRAC [5] was 1 (mmol of trolox)/(mmol of tested compound).
For `O=C(OCCc1cc(O)c(O)cc1[N+](=O)[O-])C1CCN(Cc2ccccc2)CC1` [HT2], the “Reduction of ROS amount (in words)” value (SH-SY5Y cells [1]; H2O2 100 μM as toxic insult) was “the more effective one to reduce the ROS amount to the physiological values”, the “ROS measurement 250 nM” value (SH-SY5Y cells [1]) was 2.21 and the “ROS measurement 500 nM” value (SH-SY5Y cells [1]) was 1.97. For the same compound, the “ROS measurement 1 μM” value (SH-SY5Y cells [1]) was 1.12, the “ROS measurement 10 μM” value (SH-SY5Y cells [1]) was 1.38 and the “Reduction of ORAC antioxidant capacity compared to HT1” value [4] was roughly 3 times. For the same compound, the ORAC [4] was 7.6 ± 0.2 µmol trolox l^−1, the TEAC [5] was 2,77 and the CUPRAC [5] was 2.77 (mmol of trolox)/(mmol of tested compound). The Metal chelating activity [6] was “chelates all the metal cations; also recorded: showed metal chelating properties”, the IC50 (SH-SY5Y cells [2]) was greater than 50 µM and the “Protective effect on cell viability” value (SH-SY5Y cells [3]) was “statistically significant increase in cell viability; also recorded: able to attenuate cell injury against oxidative stress”.
For `COc1cc(CCOC(=O)C2CCN(Cc3ccccc3)CC2)ccc1O` [HT3], the “ROS measurement 250 nM” value (SH-SY5Y cells [1]) was 3.68, the “ROS measurement 500 nM” value (SH-SY5Y cells [1]) was 2.91 and the “ROS measurement 1 μM” value (SH-SY5Y cells [1]) was 2.18. The “ROS measurement 10 μM” value (SH-SY5Y cells [1]) was 2.76, the ORAC [4] was 45.2 ± 3.6 µmol trolox l^−1 and the TEAC [5] was 1,80. For the same compound, the CUPRAC [5] was 1.80 (mmol of trolox)/(mmol of tested compound) and the IC50 (SH-SY5Y cells [2]) was greater than 25 µM.
For `O=C(OCCc1ccc(O)c(O)c1)C1CCN(Cc2ccccc2)CC1` [HT1], the “ROS measurement 250 nM” value (SH-SY5Y cells [1]) was 6.18, the “ROS measurement 500 nM” value (SH-SY5Y cells [1]) was 5.25 and the “ROS measurement 1 μM” value (SH-SY5Y cells [1]) was 5.47. For the same compound, the “ROS measurement 10 μM” value (SH-SY5Y cells [1]) was 5.49, the ORAC [4] was 21.2 ± 1.6 µmol trolox l^−1 and the TEAC [5] was 3,36. For the same compound, the CUPRAC [5] was 3.36 (mmol of trolox)/(mmol of tested compound), the Metal chelating activity [6] was “able to chelate only Copper (II) efficiently; also recorded: showed metal chelating properties” and the IC50 (SH-SY5Y cells [2]) was 50 µM.
In the case of `CC(=O)Oc1ccc(CCOC(=O)C2CCN(Cc3ccccc3)CC2)cc1` [HT4a], the “ROS measurement 250 nM” value (SH-SY5Y cells [1]) is reported as 2.34, the “ROS measurement 500 nM” value (SH-SY5Y cells [1]) is reported as 2.77 and the “ROS measurement 1 μM” value (SH-SY5Y cells [1]) is reported as 2.94. The “ROS measurement 10 μM” value (SH-SY5Y cells [1]) was 3.01, the “Effect on cell viability” value (SH-SY5Y cells [2]) was “reduction in cell viability was found for compounds HT3a and HT4a at concentrations higher than 10 μM” and the IC50 (SH-SY5Y cells [2]) was greater than 10 µM. For the same compound, the “Protective effect on cell viability” value (SH-SY5Y cells [3]) was “statistically significant increase in cell viability”.
With `O=C(OCCc1ccc(O)cc1)C1CCN(Cc2ccccc2)CC1` [HT4] the “ROS measurement 250 nM” value (SH-SY5Y cells [1]) was 3.9, the “ROS measurement 500 nM” value (SH-SY5Y cells [1]) was 3.2 and the “ROS measurement 1 μM” value (SH-SY5Y cells [1]) was 3.64. For the same compound, the “ROS measurement 10 μM” value (SH-SY5Y cells [1]) was 3.67, the ORAC [4] was 23.0 ± 2.0 µmol trolox l^−1 and the TEAC [5] was 0,99. The CUPRAC [5] was 0.99 (mmol of trolox)/(mmol of tested compound) and the IC50 (SH-SY5Y cells [2]) was greater than 25 µM.
